Where two headings read alike, the source gives them in different places.

Common to all, as to conditions: anti-Flag purified enzyme, less than 10% of activity recovered on purification, assay buffer: 0.1 mM pyridoxal phosphate, 1 mM dithiothreitol, 37°C
The target of one series is T1, xlODC1 (Xenopus laevis, UniProt P27120).
T1 construct: gene odc1-a
T1 sequence (P27120 1-460): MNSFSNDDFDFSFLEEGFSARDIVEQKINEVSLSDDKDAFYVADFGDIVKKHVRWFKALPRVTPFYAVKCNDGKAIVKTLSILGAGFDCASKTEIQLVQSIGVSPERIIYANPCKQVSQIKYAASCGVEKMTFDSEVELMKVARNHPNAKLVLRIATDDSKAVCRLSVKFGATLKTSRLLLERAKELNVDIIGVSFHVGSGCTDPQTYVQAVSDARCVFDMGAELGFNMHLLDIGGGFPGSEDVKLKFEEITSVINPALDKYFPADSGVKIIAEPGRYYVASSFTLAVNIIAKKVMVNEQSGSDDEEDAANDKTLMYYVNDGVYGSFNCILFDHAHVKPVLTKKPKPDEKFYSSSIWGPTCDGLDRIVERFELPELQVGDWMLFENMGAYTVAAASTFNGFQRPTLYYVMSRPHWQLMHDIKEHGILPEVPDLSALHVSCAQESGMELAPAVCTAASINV
The experiment in a line: decarboxylase activity, Michaelis-Menten fit. The format is biochemical.

Substrate in the series “purified protein”: NCCC[C@H](N)C(=O)O
The experiment in a line: purified protein.

Substrate in series [1]: NCCCC[C@H](N)C(=O)O
The experiment in a line: decarboxylase activity, Michaelis-Menten fit. The format is biochemical, Xenopus laevis.

For the molecule `NCCC[C@H](N)C(=O)O` [L-ornithine], the Km at xlODC1 (read-out: Km^Orn) is 0.103 ± 0.027 mM.

On to `NCCCC[C@H](N)C(=O)O` [L-lysine], for which the Michaelis constant (Km) on xlODC1 (unit inferred, mM from, read-out: Km^Lys) was found to be 34.9 ± 6.1 mM.

B1: xlAZIN2 (xlODC2, xlLDC, xlLODC) (Xenopus laevis) (protein)
chain: MQGYIQESDFNLVEEGFLARDLMEEIINEVSQTEDRDAFFVADLGDVVRKHLRFLKALPRVKPFYAVKCNSSKGVVKILAELGAGFDCASKTEIELVQDVGVAPERIIYANPCKQISQIKYAAKNGVQMMTFDNEVELSKVSRSHPNARMVLRIATDDSKSSARLSVKFGAPLKSCRRLLEMAKNLSVDVIGVSFHVGSGCTDSKAYTQAISDARLVFEMASEFGYKMWLLDIGGGFPGTEDSKIRFEEIAGVINPALDMYFPESSDVQIIAEPGRYYVASAFSLAVNVIAKKEVEHSVSDDEENESSKSIMYYVNDGVYGSFNCLVFDHAHPKPILHKKPSPDQPLYTSSLWGPTCDGLDQIAERVQLPELHVGDWLLFENMGAYTIAASSNFNGFQQSPVHYAMPRAAWKAVQLLQRGLQQTEEKENVCTPMSCGWEISDSLCFTRTFAATSII
On to B1, for which the Km was determined as 3080 ± 810 µM in the series “purified protein” and 807 ± 102 µM in series [1].

A word on the Km: it is the substrate concentration at which the rate is half of its maximum.

The record behind these values is publication PMC6738921, “Polyamine biosynthesis in Xenopus laevis: the xlAZIN2/xlODC2 gene encodes a lysine/ornithine decarboxylase” (PLoS ONE, 2019).
